For 32 molecules, viability results are on record in publication PMC12040169 (PLOS Biology, 2025).

SMILES strings stand for the structures.

The series is described as follows: in vitro. The note with it: human, hela cells, % viability.
Consider `COc1ccc(-n2c(SCC(N)=O)nc3sc4c(c3c2=O)CC(C)(C)OC4)cc1` [CBK263232], for which the viability at 28.5 h, 10 µM was found to be 101%.

Take `COc1ccc2[nH]c(Sc3c([N+](=O)[O-])nc(C)n3Cc3ccccc3)nc2c1` [CBK263235]: the viability at 28.5 h, 10 µM was found to be 80.7%.

Consider `O=C(O)CCN1CCn2c3c(c4cc(C5CCCCC5)ccc42)CCCC31` (centres unmarked) [CBK263236], for which the viability at 28.5 h, 10 µM was determined as 91.4%.

With `C=CCn1c2ccccc2c2nnc(SCC(=O)N3c4ccccc4Sc4ccccc43)nc21` [CBK263237], the viability at 28.5 h, 10 µM stood at 106%.

Turning to `O=C(Nc1ccccc1C(=O)O)c1cc(S(=O)(=O)Nc2cccc(F)c2)ccc1Cl` [CBK263242], the viability at 28.5 h, 10 µM came out at 84.7%.

Turning to `CC(=O)c1ccc(NC(=O)c2cccc(S(=O)(=O)N3CCCCC3)c2)cc1` [CBK263246], the viability at 28.5 h, 10 µM turned out to be 96.4%.

As for `O=C(O)c1ccc(Br)c(S(=O)(=O)Nc2ccc(Cl)cc2)c1` [CBK263247], the viability at 28.5 h, 10 µM is 98%.

Turning to `c1ccc2c(c1)[nH]c1nc(SCCN3CCCCC3)nnc12` [CBK263249], the viability at 28.5 h, 10 µM is 88.7%.

Consider `S=C(NCCCN1CCOCC1)Nc1cccc(Cl)c1` [CBK263255], for which the viability at 28.5 h, 10 µM amounted to 95%.

Take `CN(C)c1ccc([N+](=O)[O-])cc1/C=N/NC(=O)CCc1ccccc1O` [CBK263257]: the viability at 28.5 h, 10 µM was found to be 86.1%.

Take `Cc1ccccc1C(=O)N/N=C/c1ccc(Sc2nnnn2-c2ccccc2)o1` [CBK263259]: the viability at 28.5 h, 10 µM is 114%.

As to `O=C(CSCC(=O)c1ccc(F)cc1)Nc1ccc2ccccc2c1` [CBK263264], the viability at 28.5 h, 10 µM was found to be 88.1%.

In the case of `O=C(O)CSCc1ccc(C(=O)O)o1` [CBK263267], the viability at 28.5 h, 10 µM stood at 107%.

Regarding `CCCC(=O)NC(c1ccc(OC)c(OC)c1)c1c(O)ccc2ccccc12` (centres unmarked) [CBK263269], the viability at 28.5 h, 10 µM was determined as 95.2%.

On to `O=C(CC1c2ccccc2Oc2ccccc21)Nc1ccc(Cc2ccncc2)cc1` [CBK263271], for which the viability at 28.5 h, 10 µM turned out to be 91.6%.

For the molecule `COc1ccc(/C(N)=N/OC(=O)Cc2ccc(Cl)cc2)cc1OC` [CBK263272], the viability at 28.5 h, 10 µM was 93.2%.

For `Cc1c(Cl)cccc1NC(=O)C(=O)NCCCN1CCOCC1` [CBK263276], the viability at 28.5 h, 10 µM turned out to be 109%.

Turning to `N=C(N/N=C\c1ccncc1)N/N=C\c1ccncc1` [CBK263278C], the viability at 28.5 h, 10 µM worked out at 94.1%.

As for `O=S(=O)(NC(c1c[nH]c2ccccc12)C(Cl)(Cl)Cl)c1ccccc1` (centres unmarked) [CBK263279], the viability at 28.5 h, 10 µM is 91.7%.

For the molecule `CN1CCN(c2ccc([N+](=O)[O-])cc2/C=N/NC(=O)CCc2ccccc2O)CC1` [CBK263281], the viability at 28.5 h, 10 µM came out at 97.7%.

On to `c1nnc(SCc2ccc(CSc3nnc[nH]3)cc2)[nH]1` [CBK263282], for which the viability at 28.5 h, 10 µM was 93.5%.

As to `Cc1nc2ncccn2c1-c1csc(Nc2ccc(C(=O)O)cc2)n1` [CBK263284], the viability at 28.5 h, 10 µM was 125%.

As to `CCOc1ccc(N2C(=O)CC(N3CCN(c4ccccn4)CC3)C2=O)cc1` (centres unmarked) [CBK263285], the viability at 28.5 h, 10 µM was 100%.

Turning to `COc1ccccc1OCCOc1cccc(/C=N/n2cnnc2)c1` [CBK263288], the viability at 28.5 h, 10 µM is 94.7%.

For `NC(=O)C1CCN(C2CC(=O)NC2=O)CC1` (centres unmarked) [CBK263290], the viability at 28.5 h, 10 µM amounted to 90.3%.

On to `Cc1nc(C)c(-c2csc(Nc3ccc(S(N)(=O)=O)cc3)n2)s1` [CBK263292B], for which the viability at 28.5 h, 10 µM stood at 95.8%.

In the case of `CCOc1ccc(/N=C2/SC(C(=O)O)CC(=O)N2Cc2ccc3c(c2)OCO3)cc1` (centres unmarked) [CBK263296], the viability at 28.5 h, 10 µM stood at 93.3%.

Regarding `CCNc1ncnc2c1oc1ccccc12` [CBK263298], the viability at 28.5 h, 10 µM was 89.8%.

On to `COc1ccc(C(=O)CSc2nnc(-c3ccccc3)[nH]2)cc1[N+](=O)[O-]` [CBK263299], for which the viability at 28.5 h, 10 µM is 97.4%.

Take `Cc1nc2ccccn2c1-c1csc(Nc2cccc(C(=O)O)c2)n1` [CBK263303B]: the viability at 28.5 h, 10 µM stood at 92.7%.

Regarding `CCOC(=O)c1ccc(N2C(=O)CC(N3CCN(c4ncccn4)CC3)C2=O)cc1` (centres unmarked) [CBK263306], the viability at 28.5 h, 10 µM was 105%.

With `Cc1nc(N)sc1-c1csc(Nc2ncccn2)n1` [CBK263307B], the viability at 28.5 h, 10 µM is 108%.
